{"source": "patent US20100298138A1", "about": "“Aminoazoline and Urea Derivatives for Combating Animal Pests” (BASF SE, priority 2007, published 2010)", "key": {"[1]": {"tested_on": "Silverleaf Whitefly (Bemisia argentifolii)", "experiment": "whole plant or invertebrate", "format": "in vivo", "conditions": "in Gossypium hirsutum, 72 h, 3 days after treatment, in comparison with untreated controls", "method": "II.4 Silverleaf Whitefly (Bemisia argentifolii), Adult\nThe active compounds were formulated in 50:50 acetone:water and 100 ppm Kinetic® surfactant.\nSelected cotton plants were grown to the cotyledon state (one plant per pot). The cotyledons were dipped into the test solution to provide complete coverage of the foliage and placed in a well-vented area to dry. Each pot with treated seedling was placed in a plastic cup and 10 to 12 whitefly adults (approximately 3-5 day old) were introduced. The insects were collected using an aspirator and an 0.6 cm, non-toxic Tygon® tubing (R-3603) connected to a barrier pipette tip. The tip, containing the collected insects, was then gently inserted into the soil containing the treated plant, allowing insects to crawl out of the tip to reach the foliage for feeding. The cups were covered with a reusable screened lid (150 micron mesh polyester screen PeCap from Tetko Inc). Test plants were maintained in the holding room at about 25° C. and 20-40% relative humidity for 3 days avoiding direct exposure to the fluorescent light (24 hour photoperiod) to prevent trapping of heat inside the cup. Mortality was assessed 3 days after treatment of the plants."}, "[2]": {"tested_on": "Brown Planthopper (Nilaparvata lugens)", "experiment": "whole plant or invertebrate", "format": "in vivo", "conditions": "in Oryza sativa, assessed 24, 48 and 72 hours after treatment, in comparison with untreated controls", "method": "II.5 Brown Planthopper (Nilaparvata lugens)\nThe active compounds were formulated as a 20:80 acetone:water solution. Surfactant (Alkamuls EL 620) was added at the rate of 0.1% (vol/vol).\nPotted rice plants of 3-4 weeks of age are sprayed with 10 ml of the test solution using air driven hand atomizer (Devillbis atomizer) at 1.7 bar. The treated plants are allowed to dry for about 1 hour and covered with Mylar cages. The plants are inoculated with 10 adults of the specie (5 male and 5 females) and kept at 25-27° C. and 50-60% humidity for 3 days. Mortality is assed after 24, 48 and 72 hours after treatment. Dead insects are usually found in the water surface. Each treatment is replicated once."}, "[3]": {"tested_on": "Cotton Aphid (Aphis gossypii)", "experiment": "whole plant or invertebrate", "format": "in vivo", "conditions": "120 h", "excerpt": "• 2. Biological Examples II.1 Cotton Aphid (Aphis gossypii), Mixed Life Stages\nThe active compounds were formulated in 50:50 acetone: water and 100 ppm Kinetic® surfactant.\nCotton plants at the cotyledon stage (one plant per pot) were infested by placing a heavily infested leaf from the main colony on top of each cotyledon. The aphids were allowed to transfer to the host plant overnight, and the leaf used to transfer the aphids was removed. The cotyledons were dipped in the test solution and allowed to dry. After 5 days, mortality counts were made."}, "[4]": {"tested_on": "Mediterranean fruitfly (Ceratitis capitata)", "conditions": "eggs treated with 2500 ppm; 6 days", "method": "II.9 Activity against Mediterranean fruitfly (Ceratitis capitata)\n50 to 80 eggs were placed into microtiterplates filled with 0.5% agar-agar and 14% diet in water. The eggs were sprayed with 5 μl of the test solution, the plates were sealed with pierced foils and kept at 27-29° C. and 75-85% humidity under fluorescent light for 6 days. Mortality was assessed on the basis of the agility of the hatched larvae. Tests were replicated 2 times."}}, "data": [{"smiles": "COc1ccc2c(c1)CC(NC(=S)NCCOC(C)=O)CC2", "note": "(centres unmarked) [compound 17, Acetic acid 2-[3-(7-methoxy-1,2,3,4-tetrahydro-naphthalen-2-yl)-thioureido]-ethyl ester]", "values": [{"measurement": "mortality at 300 ppm", "setting": "[1]", "value": "≥ 50", "unit": "%"}, {"measurement": "mortality at 300 ppm", "setting": "[2]", "value": "≥ 50", "unit": "%"}]}, {"smiles": "Clc1cccc2c1CC(NC1=NCCS1)CC2", "note": "(centres unmarked) [compound 2a, (8-Chloro-1,2,3,4-tetrahydro-naphthalen-2-yl)-(4,5-dihydro-thiazol-2-yl)-amine]", "values": [{"measurement": "mortality at 300 ppm", "setting": "[3]", "value": "≥ 50", "unit": "%"}]}, {"smiles": "COc1ccc2c(c1)CC(NC(=S)NCCOC(=O)c1ccccc1)CC2", "note": "(centres unmarked) [compound 16, Benzoic acid 2-[3-(7-methoxy-1,2,3,4-tetrahydro-naphthalen-2-yl)-thioureido]-ethyl ester]", "values": [{"measurement": "mortality at 300 ppm", "setting": "[1]", "value": "≥ 50", "unit": "%"}]}, {"smiles": "COc1ccc2c(c1)CC(NC(=S)NCCO)CC2", "note": "(centres unmarked) [compound 18]", "values": [{"measurement": "mortality", "setting": "[4]", "value": "at least 50%"}]}]}
